# According to ChEMBL document CHEMBL3286266, “Development of novel benzomorpholine class of diacylglycerol acyltransferase I inhibitors” (ACS Med Chem Lett, 2014):
# Target: T1, Diacylglycerol O-acyltransferase 1 (Mus musculus, UniProt Q9Z2A7)
# T1 sequence (Q9Z2A7 whole entry): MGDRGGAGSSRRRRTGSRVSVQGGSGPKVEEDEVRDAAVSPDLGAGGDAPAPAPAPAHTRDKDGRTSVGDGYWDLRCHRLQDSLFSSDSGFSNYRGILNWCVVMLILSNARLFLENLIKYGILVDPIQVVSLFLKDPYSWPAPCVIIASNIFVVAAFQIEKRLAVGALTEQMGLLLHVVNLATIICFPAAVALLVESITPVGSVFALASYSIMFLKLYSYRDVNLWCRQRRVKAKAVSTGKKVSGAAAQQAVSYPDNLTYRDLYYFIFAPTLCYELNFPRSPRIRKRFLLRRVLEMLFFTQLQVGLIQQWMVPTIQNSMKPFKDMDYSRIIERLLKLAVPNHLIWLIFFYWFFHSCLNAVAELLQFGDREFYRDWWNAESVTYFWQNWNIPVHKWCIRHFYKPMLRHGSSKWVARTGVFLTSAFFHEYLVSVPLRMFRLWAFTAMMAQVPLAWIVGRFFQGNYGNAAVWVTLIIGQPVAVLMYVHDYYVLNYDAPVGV
# Test: Inhibition of mouse DGAT1 expressed in Sf9 insect cells using 1,2-dioleoyl-sn-glycerol and [14C]-palmitoyl-CoA substrate by scintillation counting analysis
row,SMILES,IC50
1,O=C(O)C[C@H]1CC[C@H](c2ccc(-c3ccc4c(c3)OCCN4C(=O)NCc3ccccc3)cc2)CC1,110 nM
2,CCCC1CN(C(=O)Nc2ccccc2)c2ccc(-c3ccc([C@H]4CC[C@H](CC(=O)O)CC4)cc3)cc2O1 (stereo partly drawn),160 nM
3,O=C(O)C[C@H]1CC[C@H](c2ccc(-c3ccc4c(c3)OCCN4C(=O)Cc3ccccc3)cc2)CC1,110 nM
4,O=C(O)C[C@H]1CC[C@H](c2ccc(-c3ccc4c(c3)OCCN4c3nc4ccccc4o3)cc2)CC1,> 10000 nM
5,CC1Oc2cc(-c3ccc([C@H]4CC[C@H](CC(=O)O)CC4)cc3)ccc2N(C(=O)Nc2ccccc2)C1=O (stereo partly drawn),> 10000 nM
6,CC(C)C1CN(C(=O)Nc2ccccc2)c2ccc(-c3ccc([C@H]4CC[C@H](CC(=O)O)CC4)cc3)cc2O1 (stereo partly drawn),300 nM
7,O=C(O)C[C@H]1CC[C@H](c2ccc(-c3ccc4c(n3)OCCN4C(=O)Nc3ccccc3)cc2)CC1,550 nM
8,CCc1ccccc1NC(=O)N1CCOc2cc(-c3ccc([C@H]4CC[C@H](CC(=O)O)CC4)cc3)ccc21,37 nM

# More lines, now with the values ahead:
row,IC50,SMILES
1,> 10000 nM,O=C(O)C[C@H]1CC[C@H](c2ccc(-c3cnc4c(c3)OCCN4C(=O)Nc3ccccc3)cc2)CC1
2,7300 nM,CS(=O)(=O)NC(=O)C[C@H]1CC[C@H](c2ccc(-c3ccc4c(c3)OCCN4C(=O)Nc3ccccc3)cc2)CC1
3,310 nM,CCC1CN(C(=O)Nc2ccccc2)c2ccc(-c3cnc(OCC(C)(C)C(=O)O)nc3)cc2O1 (stereo not drawn)
4,210 nM,CCC1CN(C(=O)Nc2ccccc2)c2ccc(-c3ccc(OC[C@H]4C[C@@H]4C(=O)O)nc3)cc2O1 (relative stereo)
5,53 nM,CCc1ccccc1NC(=O)N1C[C@H](C)Oc2cc(-c3ccc([C@H]4CC[C@H](CC(=O)O)CC4)cc3)ccc21
6,90 nM,CCC1CN(C(=O)Nc2ccccc2)c2ccc(-c3ccc(OCC4(C(=O)O)CC4)nc3)cc2O1 (stereo not drawn)
7,> 10000 nM,O=C(O)C[C@H]1CC[C@H](c2ccc(-c3ccc4c(c3)N(C(=O)Nc3ccccc3)CCO4)cc2)CC1
8,> 10000 nM,O=C(O)C[C@H]1CC[C@H](c2ccc(-c3cccc4c3OCCN4C(=O)Nc3ccccc3)cc2)CC1
9,16 nM,O=C(O)C[C@H]1CC[C@H](c2ccc(-c3ccc4c(c3)OCCN4C(=O)Nc3ccccc3C(F)(F)F)cc2)CC1
10,170 nM,O=C(Nc1ccccc1)N1CCOc2cc(-c3ccc([C@H]4CC[C@H](Cc5nnn[nH]5)CC4)cc3)ccc21
11,360 nM,C[C@H]1CN(C(=O)Nc2ccccc2)c2ccc(-c3ccc([C@H]4CC[C@H](CC(=O)O)CC4)cc3)cc2O1

# Test system: Mus musculus
# Test: Reduction in triglycerides level in mouse at 10 mg/kg, po after 2 hrs by postprandial triglyceride assay
# Type: functional
row,SMILES,inhibition in vivo at 10 mg/kg
1,O=C(Nc1ccccc1)N1CCOc2cc(-c3ccc([C@H]4CC[C@H](Cc5nnn[nH]5)CC4)cc3)ccc21,9%

# Target: T2, Diacylglycerol O-acyltransferase 1 (Homo sapiens, UniProt O75907)
# T2 sequence (O75907 whole entry): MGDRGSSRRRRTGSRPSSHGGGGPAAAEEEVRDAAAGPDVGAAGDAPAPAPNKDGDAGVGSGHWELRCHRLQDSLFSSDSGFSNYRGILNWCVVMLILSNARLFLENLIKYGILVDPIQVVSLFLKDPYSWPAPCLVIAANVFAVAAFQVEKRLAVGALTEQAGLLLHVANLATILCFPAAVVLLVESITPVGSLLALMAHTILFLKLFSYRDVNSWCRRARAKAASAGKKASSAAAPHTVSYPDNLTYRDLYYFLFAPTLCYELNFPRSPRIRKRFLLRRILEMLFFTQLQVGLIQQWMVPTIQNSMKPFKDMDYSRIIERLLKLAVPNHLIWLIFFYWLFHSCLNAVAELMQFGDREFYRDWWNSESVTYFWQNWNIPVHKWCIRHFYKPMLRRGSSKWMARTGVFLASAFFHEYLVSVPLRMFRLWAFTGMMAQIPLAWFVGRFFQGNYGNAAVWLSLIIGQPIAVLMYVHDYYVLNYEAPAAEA
# Test: Inhibition of human DGAT1 expressed in Sf9 insect cells using 1,2-dioleoyl-sn-glycerol and [14C]-palmitoyl-CoA substrate by scintillation counting analysis
row,SMILES,IC50
1,O=C(O)C[C@H]1CC[C@H](c2ccc(-c3ccc4c(c3)OCCN4c3nc4ccccc4o3)cc2)CC1,> 10000 nM
2,CC1Oc2cc(-c3ccc([C@H]4CC[C@H](CC(=O)O)CC4)cc3)ccc2N(C(=O)Nc2ccccc2)C1=O (stereo partly drawn),> 10000 nM

# More lines, now with the values ahead:
row,IC50,SMILES
1,> 10000 nM,O=C(O)C[C@H]1CC[C@H](c2ccc(-c3cnc4c(c3)OCCN4C(=O)Nc3ccccc3)cc2)CC1
2,85 nM,CCc1ccccc1NC(=O)N1C[C@H](C)Oc2cc(-c3ccc([C@H]4CC[C@H](CC(=O)O)CC4)cc3)ccc21
3,> 10000 nM,O=C(O)C[C@H]1CC[C@H](c2ccc(-c3ccc4c(c3)N(C(=O)Nc3ccccc3)CCO4)cc2)CC1
4,> 10000 nM,O=C(O)C[C@H]1CC[C@H](c2ccc(-c3cccc4c3OCCN4C(=O)Nc3ccccc3)cc2)CC1
5,530 nM,C[C@H]1CN(C(=O)Nc2ccccc2)c2ccc(-c3ccc([C@H]4CC[C@H](CC(=O)O)CC4)cc3)cc2O1

# Test system: Mus musculus
# Test: Reduction in triglycerides level in mouse at 3 mg/kg, po after 2 hrs by postprandial triglyceride assay
# Type: functional
row,SMILES,inhibition in vivo at 3 mg/kg
1,CCc1ccccc1NC(=O)N1C[C@H](C)Oc2cc(-c3ccc([C@H]4CC[C@H](CC(=O)O)CC4)cc3)ccc21,46%
